Measured values published in PubChem BioAssay AID180 (DTP/NCI, 2004).
Several values for one entry are separate records, joined by “and”; a condition that tells them apart may be missing. Equal values may be shown once.

Tested on: BDF1 mice, Adenocarcinoma 755 s.c., tumor weight T/C
Assay: NCI In Vivo Anticancer Drug Screen. Data for tumor model Adenocarcinoma 755 (subcutaneous) in B6D2F1 (BDF1) mice
Settings: endpoint: mean tumor weight, higher = larger tumour
Summary of the method: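 Compound activity was tested in mice carrying transplanted tumors. Survival or tumor size was measured, and each value is the treated-group measurement divided by that of the vehicle-treated control group (T/C).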

[1] = dose: 400.0 mg/kg/injection, schedule: Q01DX011 (ip), vehicle: carboxymethylcellulose (CMC)
[2] = dose: 25.0 mg/kg/injection, schedule: Q01DX011 (ip), vehicle: methylcellulose (MC)
[3] = dose: 12.5 mg/kg/injection, schedule: Q01DX011 (ip), vehicle: methylcellulose (MC)
[4] = dose: 50.0 mg/kg/injection, schedule: Q01DX011 (ip), vehicle: methylcellulose (MC)
[5] = dose: 100.0 mg/kg/injection, schedule: Q01DX011 (ip), vehicle: methylcellulose (MC)
[6] = dose: 15.0 mg/kg/injection, schedule: Q01DX011 (ip), vehicle: methylcellulose (MC)
[7] = dose: 31.0 mg/kg/injection, schedule: Q01DX011 (ip), vehicle: methylcellulose (MC)
[8] = dose: 62.0 mg/kg/injection, schedule: Q01DX011 (ip), vehicle: methylcellulose (MC)
[9] = dose: 125.0 mg/kg/injection, schedule: Q01DX011 (ip), vehicle: methylcellulose (MC)
[10] = dose: 250.0 mg/kg/injection, schedule: Q01DX011 (ip), vehicle: methylcellulose (MC)

CC(=O)OCC1OC(n2cnc3c(=O)[nH]cnc32)C(OC(C)=O)C1OC(C)=O (stereo unspecified)
T/C (dose: 30.0 mg/kg/injection, schedule: Q01DX011 (ip), vehicle: carboxymethylcellulose (CMC)): 55 % of control
T/C (dose: 60.0 mg/kg/injection, schedule: Q01DX011 (ip), vehicle: carboxymethylcellulose (CMC)): 65 % of control
T/C (dose: 120.0 mg/kg/injection, schedule: Q01DX011 (ip), vehicle: carboxymethylcellulose (CMC)): 80 % of control
T/C (dose: 240.0 mg/kg/injection, schedule: Q01DX011 (ip), vehicle: carboxymethylcellulose (CMC)): 67 % of control
T/C [1]: 110 % of control
T/C (dose: 600.0 mg/kg/injection, schedule: Q01DX011 (ip), vehicle: carboxymethylcellulose (CMC)): 117 % of control

COc1ccc2c(c1)CCC(c1ccccc1)=C2c1ccc(OCCN2CCCC2)cc1
T/C (dose: 3.0 mg/kg/injection, schedule: Q01DX011 (sc), vehicle: steriod suspending solution): 86 % of control
T/C (dose: 6.0 mg/kg/injection, schedule: Q01DX011 (sc), vehicle: steriod suspending solution): 82 % of control
T/C (dose: 12.0 mg/kg/injection, schedule: Q01DX011 (sc), vehicle: steriod suspending solution): 34 % of control
T/C (dose: 25.0 mg/kg/injection, schedule: Q01DX011 (sc), vehicle: steriod suspending solution): 26 % of control

O=c1[nH]cnc2c1ncn2CCCl
T/C [2]: 195 % of control
T/C (dose: 75.0 mg/kg/injection, schedule: Q01DX011 (ip), vehicle: methylcellulose (MC)): 150 % of control
T/C (dose: 225.0 mg/kg/injection, schedule: Q01DX011 (ip), vehicle: methylcellulose (MC)): 120 % of control

CCCCn1nnc2c(Nc3ccc(Cl)cc3)nc(N)nc21
T/C (dose: 62.5 mg/kg/injection, schedule: Q01DX011 (ip), vehicle: carboxymethylcellulose (CMC)): 96 % of control
T/C (dose: 125.0 mg/kg/injection, schedule: Q01DX011 (ip), vehicle: carboxymethylcellulose (CMC)): 89 % of control
T/C (dose: 250.0 mg/kg/injection, schedule: Q01DX011 (ip), vehicle: carboxymethylcellulose (CMC)): 68 % of control

CCn1cnc2c(SC)nc(N)nc21
T/C (dose: 6.25 mg/kg/injection, schedule: Q01DX011 (ip), vehicle: methylcellulose (MC)): 74 % of control
T/C [3]: 30 % of control
T/C [2]: 31 % of control
T/C [4]: 7 % of control
T/C [5]: 1 % of control

CS(=O)(=O)OCCCl
T/C (dose: 20.88 mg/kg/injection, schedule: Q01DX011 (ip), vehicle: carboxymethylcellulose (CMC)): 80 % of control
T/C (dose: 28.73 mg/kg/injection, schedule: Q01DX011 (ip), vehicle: carboxymethylcellulose (CMC)): 80 % of control
T/C (dose: 40.25 mg/kg/injection, schedule: Q01DX011 (ip), vehicle: carboxymethylcellulose (CMC)): 52 % of control
T/C (dose: 41.75 mg/kg/injection, schedule: Q01DX011 (ip), vehicle: carboxymethylcellulose (CMC)): 117 % of control
T/C (dose: 83.5 mg/kg/injection, schedule: Q01DX011 (ip), vehicle: carboxymethylcellulose (CMC)): 97 % of control
T/C (dose: 114.9 mg/kg/injection, schedule: Q01DX011 (ip), vehicle: carboxymethylcellulose (CMC)): 88 % of control and 103 % of control
T/C (dose: 130.0 mg/kg/injection, schedule: Q01DX011 (ip), vehicle: carboxymethylcellulose (CMC)): 54 % of control
T/C (dose: 140.0 mg/kg/injection, schedule: Q01DX011 (ip), vehicle: carboxymethylcellulose (CMC)): 21 % of control
T/C (dose: 150.0 mg/kg/injection, schedule: Q01DX011 (ip), vehicle: carboxymethylcellulose (CMC)): 11 % of control

CCCCNCC(C)C(=O)OC (stereo unspecified)
T/C [6]: 92 % of control
T/C [7]: 93 % of control
T/C [8]: 87 % of control
T/C [9]: 104 % of control
T/C [10]: 104 % of control

Nc1nc([S-])c2nc[nH]c2n1.Nc1nc([S-])c2nc[nH]c2n1.Nc1nc([S-])c2nc[nH]c2n1.[Pt]
T/C (dose: 1.0 mg/kg/injection, schedule: Q01DX011 (ip), vehicle: carboxymethylcellulose (CMC)): 44 % of control
T/C (dose: 1.3 mg/kg/injection, schedule: Q01DX011 (ip), vehicle: carboxymethylcellulose (CMC)): 65 % of control
T/C (dose: 2.0 mg/kg/injection, schedule: Q01DX011 (ip), vehicle: carboxymethylcellulose (CMC)): 19 % of control
T/C (dose: 2.5 mg/kg/injection, schedule: Q01DX011 (ip), vehicle: carboxymethylcellulose (CMC)): 12 % of control
T/C (dose: 4.0 mg/kg/injection, schedule: Q01DX011 (ip), vehicle: carboxymethylcellulose (CMC)): 2 % of control

[N-]=[N+]=C1C(=O)NC(=O)N2C3CC(O)C(COC12)O3 (stereo unspecified)
T/C (dose: 30.0 mg/kg/injection, schedule: Q01DX011 (ip), vehicle: saline): 87 % of control
T/C (dose: 60.0 mg/kg/injection, schedule: Q01DX011 (ip), vehicle: saline): 80 % of control
T/C (dose: 120.0 mg/kg/injection, schedule: Q01DX011 (ip), vehicle: saline): 97 % of control
T/C (dose: 240.0 mg/kg/injection, schedule: Q01DX011 (ip), vehicle: saline): 68 % of control
T/C [1]: 40 % of control

CCC(C)N1C(=O)CCC1=O (stereo unspecified)
T/C (dose: 37.5 mg/kg/injection, schedule: Q01DX011 (ip), vehicle: saline): 26 % of control
T/C (dose: 75.0 mg/kg/injection, schedule: Q01DX011 (ip), vehicle: saline): 58 % of control
T/C (dose: 150.0 mg/kg/injection, schedule: Q01DX011 (ip), vehicle: saline): 95 % of control
T/C (dose: 300.0 mg/kg/injection, schedule: Q01DX011 (ip), vehicle: saline): 99 % of control

CC(=O)OCC(=O)C1(O)C(C)CC2C3C=C(C)C4=Cc5c(cnn5-c5ccccc5)CC4(C)C3C(O)CC21C (stereo unspecified)
T/C (dose: 0.01 mg/kg/injection, schedule: Q01DX011 (sc), vehicle: steriod suspending solution): 74 % of control
T/C (dose: 0.02 mg/kg/injection, schedule: Q01DX011 (sc), vehicle: steriod suspending solution): 59 % of control
T/C (dose: 0.05 mg/kg/injection, schedule: Q01DX011 (sc), vehicle: steriod suspending solution): 46 % of control and 48 % of control
T/C (dose: 0.1 mg/kg/injection, schedule: Q01DX011 (sc), vehicle: steriod suspending solution): 19 % of control and 23 % of control
T/C (dose: 0.2 mg/kg/injection, schedule: Q01DX011 (sc), vehicle: steriod suspending solution): 9 % of control and 13 % of control
T/C (dose: 1.0 mg/kg/injection, schedule: Q01DX011 (sc), vehicle: steriod suspending solution): 14 % of control
T/C (dose: 5.0 micrograms/kg/injection, schedule: Q01DX011 (sc), vehicle: steriod suspending solution): 54 % of control
T/C (dose: 10.0 micrograms/kg/injection, schedule: Q01DX011 (sc), vehicle: steriod suspending solution): 106 % of control
T/C (dose: 25.0 micrograms/kg/injection, schedule: Q01DX011 (sc), vehicle: steriod suspending solution): 46 % of control

O=C(CCCl)N1CCN(C(=O)CCCl)CC1
T/C (dose: 11.25 mg/kg/injection, schedule: Q01DX011 (ip), vehicle: methylcellulose (MC)): 64 % of control
T/C (dose: 22.5 mg/kg/injection, schedule: Q01DX011 (ip), vehicle: methylcellulose (MC)): 66 % of control
T/C (dose: 44.0 mg/kg/injection, schedule: Q01DX011 (ip), vehicle: saline): 86 % of control
T/C (dose: 45.0 mg/kg/injection, schedule: Q01DX011 (ip), vehicle: methylcellulose (MC)): 80 % of control
T/C (dose: 87.5 mg/kg/injection, schedule: Q01DX011 (ip), vehicle: saline): 63 % of control
T/C (dose: 90.0 mg/kg/injection, schedule: Q01DX011 (ip), vehicle: methylcellulose (MC)): 56 % of control
T/C (dose: 175.0 mg/kg/injection, schedule: Q01DX011 (ip), vehicle: methylcellulose (MC)): 26 % of control and 33 % of control and 50 % of control
T/C (dose: 175.0 mg/kg/injection, schedule: Q01DX011 (ip), vehicle: saline): 70 % of control
T/C (dose: 263.0 mg/kg/injection, schedule: Q01DX011 (ip), vehicle: saline): 40 % of control

CCOc1ccccc1Nc1cc(Cl)nc(N)n1
T/C [6]: 96 % of control
T/C [7]: 66 % of control
T/C [8]: 70 % of control
T/C [9]: 95 % of control
T/C [10]: 70 % of control

Cc1cccc(CSc2ncnc3nc[nH]c23)n1
T/C [3]: 66 % of control
T/C [2]: 51 % of control
T/C [4]: 17 % of control
T/C [5]: 6 % of control

C=C(Br)CN(CC)CCO
T/C (dose: 50.0 mg/kg/injection, schedule: Q01DX011 (ip), vehicle: other): 66 % of control

O=C(O)C(O)C(F)(F)F (stereo unspecified)
T/C (dose: 31.0 mg/kg/injection, schedule: Q01DX011 (ip), vehicle: other): 89 % of control
T/C (dose: 62.5 mg/kg/injection, schedule: Q01DX011 (ip), vehicle: other): 82 % of control
T/C (dose: 125.0 mg/kg/injection, schedule: Q01DX011 (ip), vehicle: other): 111 % of control
T/C (dose: 250.0 mg/kg/injection, schedule: Q01DX011 (ip), vehicle: other): 46 % of control
